According to patent publication US20250340511A1, “CELLULOSE SYNTHASE INHIBITORS AS A NEW CLASS OF HERBICIDE AND NON-GMO CROPS THAT ARE RESISTANT TO THE HERBICIDE” (Purdue Research Foundation, priority 2017, published 2025):
Read-outs that look alike come from different tables or passages of the source.

What was measured:
tomato = tomato growth on media containing ES20; assay type: in vivo; settings: grown on growth media containing ES20
Excerpt: (§1) FIG. 8B depicts 16-day-old tomato and horseweed grown on the media in the absence and presence of Cellulosin. Bars, 1 cm.
(§2) Because cellulose synthase is highly conserved in plants and ES20 targets the conserved catalytic domain, we hypothesize that ES20 is active in different plants, including common weeds. We tested this hypothesis by growing tomato and horseweed on growth media containing ES20.

[1] = system: CSC (YFP-CesA6) trafficking in root epidermal cells; assay: YFP-CesA6 localization and FRAP after short-term ES20 treatment; assay type: cell-based, Arabidopsis
Excerpt: FIGS. 5A and 5B. […] FIGS. 5C and 5D. […] FIGS. 5E and 5F. The exocytic delivery of CSC to the plasma membrane was reduced after ES20 treatment. *** indicates p<0.001 by paired t-test.
A large knowledge gap in plant biology is that it is […] how the activities of large protein complexes, such as CSC, are integrated with their cellular transport. Golgi localized CSCs are delivered to the plasma membrane to catalyze cellulose synthesis. CSCs are also localized to some small vesicles named SmaCCs. It is not known what occurs to CSCs when the catalytic core fails to bind a functional substrate. In order to understand better on the integration of CSC catalytic activity and CSC trafficking, we took a straight approach and observed the localization of CesA6 after short-term ES20 treatment. […] Reduced CSC density at the plasma membrane and increased SmaCCs density could be the result of increased endocytosis or decreased exocytic delivery of CSC. We then performed fluorescence recovery after photobleaching experiment to test whether the exocytic delivery of CSC was affected by ES20 treatment. We bleached YFP-CesA6 fluorescence at the plasma membrane and then observed the delivery of new CSC to the plasma membrane (FIG. 5D).

[2] = system: wildtype Arabidopsis seedlings; assay: Arabidopsis seedling root growth on media supplemented with compound; assay type: in vivo, Arabidopsis thaliana; settings: for activity at 1 µM: Arabidopsis thaliana
Description: FIG. 2A. […] FIG. 2B. […] FIG. 2C. Quantification on the root length of 6 days old wildtype and mutant seedlings grown on growth media supplemented with DMSO solvent control. FIG. 2D. […] FIG. 2E. The ratio of root length from plants grown on 1 μM ES20 and those grown on DMSO for each genotype. The root length of wildtype plants grown on 1 μM ES20 was reduced to about 25% of those grown on DMSO. […] FIG. 2F.
The root length of wildtype plants grown on 1 μM ES20 is about 20% of those that are grown on normal media.
Individual hypocotyl epidermal cells from plants grown on ES20 media are swollen as well in compare with those grown on regular media (FIG. 1H). These growth assays indicate that ES20 inhibits cell growth and causes cells to grow in an isotropic manner instead of anisotropic manner. The composition and organization of cell wall determines plant cell shapes.
In order to identify the cell growth pathways that are targeted by ES20, we performed a chemical genetic screen for mutants that have reduced sensitivity to this growth inhibitor. […] However, we found plants that have normal green cotyledons and leaves and elongated roots. These plants became obviously heathier and stronger than other plants after two weeks of growth on ES20 and were transferred to soil to get the M3 population. […] We generated the mapping population and used high-throughput whole genome sequencing to clone the mutant genes. […] 10 out of the 12 mutants were in CesA6 and two in CesA7. After two times of backcrosses, we consistently detected less sensitivity in these mutants to ES20 (FIGS. 2A to 2E).
In order to identify key structure in ES20 that causes its inhibition activity, we collected three close analogs of ES20 (FIG. 7A) and tested for their effect in inhibiting plant growth.

[3] = system: cesa6 E929K mutant and transgenic plants that express CesA6 E929K in wildtype; assay: root growth of cesa6 E929K mutant and CesA6 E929K transgenic plants; assay type: in vivo; settings: Arabidopsis thaliana; 1 μM of ES20; read-out: root length relative to plants grown on normal media
Excerpt: The root length of […] mutant and transgenic plants that express CesA6^E929K in wildtype is about 80% of those grown on normal media.
The mutations we found are located in Arabidopsis thaliana CesA6 (AT5G64740), CesA4 (AT5G44030), CesA7 (AT5G17420) and CesA8 (AT4G18780) genes. Single nucleotide change in these mutants causes single amino acid change in CesA proteins and lead to reduced sensitivity to cellulosin (endosidin20 or ES20). The mutations we have discovered are listed in Table 1 and FIG. 11A showing the conserved amino acid residues of those subtypes of cellulose synthases. […] One is to create mutations in CesA6 homology gene in crop. The second is to express the mutant CesA6 in crops without knocking out endogenous CesA genes.

[4] = system: any1 (CesA1 D604N) plants; assay: growth response of any1 mutant to ES20; assay type: in vivo, Arabidopsis
Excerpt: (§3) FIG. 6A. Seedlings of Wildtype and fra5 grown on growth media supplemented with DMSO or ES20. FIG. 6B. Seedlings of Wildtype and any1 grown on growth media supplemented with DMSO or ES20. FIGS. 6C, 6D, 6E and 6F depict quantification on the growth of wildtype, […] and any/in the presence or absence of ES20.
(§4) Due to the conservation of plant CesAs in their central cytoplasmic domains, we hypothesized that ES20 targeted multiple CesAs to inhibit growth. In order to test this hypothesis, we tested the response of fra5 and any/to ES20. The mutant fra5 carries a mutation of P557T in Arabidopsis thaliana CesA7. CesA7 P557 aligns to CesA6 P595. […] The mutant any/carries a mutation of D604N in Arabidopsis CesA1. D604 in CesA1 aligns to D605 in CesA6.

[5] = target: T1, CesA6 central cytoplasmic domain (Arabidopsis thaliana, UniProt Q94JQ6); assay: biochemical; assay type: binding; settings: MST; SUMO-His / GFP tagged CesA6 central cytoplasmic domain purified from E. coli; read-out: dissociation constant (Kd)
T1 construct: we expressed and purified the central cytoplasmic domain of CesA6 from E. coli; made in house; host or cells: E. coli
T1 sequence (Q94JQ6 322-868 limits assumed): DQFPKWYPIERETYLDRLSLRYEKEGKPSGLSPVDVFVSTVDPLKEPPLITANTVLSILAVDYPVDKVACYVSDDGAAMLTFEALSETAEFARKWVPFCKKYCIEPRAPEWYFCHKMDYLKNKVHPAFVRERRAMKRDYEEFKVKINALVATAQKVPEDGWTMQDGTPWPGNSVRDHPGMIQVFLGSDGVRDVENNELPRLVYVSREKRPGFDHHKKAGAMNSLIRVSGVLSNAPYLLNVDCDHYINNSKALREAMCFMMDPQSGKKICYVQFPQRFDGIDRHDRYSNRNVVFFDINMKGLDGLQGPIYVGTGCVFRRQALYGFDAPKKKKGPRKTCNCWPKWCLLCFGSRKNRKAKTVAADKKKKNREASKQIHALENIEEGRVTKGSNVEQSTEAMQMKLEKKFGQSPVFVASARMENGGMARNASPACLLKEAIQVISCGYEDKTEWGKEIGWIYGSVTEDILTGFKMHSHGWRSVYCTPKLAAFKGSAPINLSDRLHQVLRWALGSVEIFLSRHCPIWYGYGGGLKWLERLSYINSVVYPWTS

[6] = system: dark-grown Arabidopsis hypocotyls; assay: crystalline cellulose content in dark-grown seedlings; assay type: in vivo, Arabidopsis thaliana; settings: concentration printed as 'M ES20'
Excerpt: Swollen cells and organs in plants are often caused by direct or indirect disruption of cell wall biosynthesis or organization. For example, swollen cells and roots have been found in cesa mutants and in plants treated with inhibitors of cellulose synthesis and microtubule organization (Arioli, T., et al., Science 1998, 279, 717-720; Burn, J. E., et al., Plant Physiol. 2002, 129, 797-807). The retarded growth and cell swollen phenotypes indicate that ES20 could affect cell growth through interfering with cell wall biosynthesis or organization. To test whether ES20 affects cell wall composition, we took the straightforward approach of analyzing crystallize cellulose content in seedlings grown in the presence of different concentrations of ES20 (Updegraff, D. M. Anal. Biochem. 1969, 32, 420-424). […] The content of crystalline cellulose in seedlings grown on M ES20 was reduced to about 50% of the seedlings grown in the absence of ES20 (FIG. 1J).

tobacco pollen tube = assay: tobacco pollen growth assay; assay type: cell-based; settings: in vitro culture
Description: (§5) In order to identify small molecules that could be used in studying plant membrane trafficking, chemical libraries have been screened first using tobacco pollen growth assay and then Arabidopsis live cell imaging assay (Drakakaki G. et al., Proc Natl Acad Sci USA 2011, 108, 17850-17855). In primary screen, small molecules that inhibited pollen gemination or pollen tube growth in in vitro culture condition were selected. For secondary screen, selected small molecules were tested in Arabidopsis plants expressing different fluorescence-tagged cellular markers. […] Locations of general organelle markers, such as HDEL-GFP (Endoplasmic Reticulum, ER), Gop1p-YFP (Golgi), SYP61-CFP (Trans-Golgi Network, TGN) and VHA1-GFP (TGN), are unaffected as well by ES20 treatment (FIGS. 9A and 9B).

[7] = system: fra5 (CesA7 P557T) plants; assay: growth response of fra5 mutant to ES20; assay type: in vivo, Arabidopsis thaliana
Excerpt: as §3, §4

horseweed = horseweed growth on media containing ES20; assay type: in vivo; settings: grown on growth media containing ES20
Excerpt: as §1, §2

[8] = system: general membrane trafficking (PIN2, BRI1, HDEL-GFP, Gop1p-YFP, SYP61-CFP, VHA1-GFP); assay: live cell imaging of fluorescence-tagged cargo and organelle markers; assay type: cell-based, Arabidopsis
Description: Transgenic plants expressing different fluorescence-tagged proteins were examined for their cellular localization in the DMSO control treatment and after 2 hours of 5 μM ES20 treatment.
as §5

## COc1ccc(C(=O)NC(=S)NNC(=O)c2ccccc2C)cc1 [ES20]
tomato
  growth inhibition of tomato: significantly inhibit the growth
[1]; root epidermal cells, short-term ES20 treatment
  density of plasma membrane localized CesA6: significantly reduced
[1]; short-term ES20 treatment
  numbers of SmaCCs that contain CesA6: significantly increased
[1]; versus DMSO control
  CSC delivery to the plasma membrane (FRAP): significantly lower than the DMSO control
[2]; 5 μM for 12 hours in liquid growth media
  root phenotype after short-term treatment: roots became swollen in the tip region
[2]; 144 h, read-out: root length relative to plants grown on DMSO
  activity at 1 µM: ~25%
[2]; read-out: root length relative to plants grown on normal media
  activity at 1 µM: ~20%
[2]; dark-grown, dosage dependent
  hypocotyl phenotype of seedlings grown under dark condition: shorter and swollen hypocotyls
[2]; wild type plants, 5 μM
  root growth arrest: completely arrests root growth
[2]; wildtype, dosage dependent
  root phenotype of seedlings grown on media with compound: shorter and swollen roots
[3]
  activity at 1 µM: ~80%
[4]
  sensitivity of any1 plants to ES20: less sensitive to ES20
[5]
  Kd: 15.4 ± 5.9 µM
[6]
  content of crystalline cellulose relative to seedlings grown in the absence of ES20: about 50%
Tobacco pollen tube
  tobacco pollen tube growth: inhibited tobacco pollen tube growth
[7]
  sensitivity of fra5 plants to ES20: reduced sensitivity to ES20
horseweed
  growth inhibition of horseweed: significantly inhibit the growth
[8]
  trafficking of cargo proteins PIN2 and BRI1: did not significantly affect the trafficking
[8]; 2 hours of 5 μM ES20 treatment (FIGS. 9A, 9B)
  locations of general organelle markers (ER, Golgi, TGN): unaffected
